The values below come from patent US7452869B2, “NIP3 family of proteins” (University of Manitoba, priority 2000, dated 2008).

Series [1] relates to primary hippocampal neurons. Nature of the series: primary hippocampal neurons transfected with BNIP3 plasmids, DNA condensation and survival. The series is classed as cell-based, rat. As to conditions: for BNIP3-positive neurons showing DNA condensation / DNA damage: transiently transfected hippocampal neurons. The protocol:
Transfection of cells was performed on day four in culture with LipofectAMINE 2000 […] according to manufacturer's protocol. Cells were transfected with a pcDNA3-BNIP3 plasmid encoding the full length of BNIP3 and a pcDNA3-BNIP3-163 plasmid that encodes a truncated form (the first 163 amino acids) of BNIP3 that lacks the functional transmembrane domain. Cells were used after 9 days in culture for excitotoxicity experiments. Neuronal cell death was assessed using trypan blue exclusion, morphological changes, and Hoescht 33342 staining. Morphological characteristics were examined on a Nikon Eclipse TE200 microscope and fluorescence was examined on a Zeiss Axioskop 2.
In vitro cell death was estimated using trypan blue exclusion. Cells were incubated in 0.4% trypan blue solution for 30 minutes and then counted on a bright-field microscope. Nonviable cells were distinguished by their dark blue staining. To examine nuclear morphology, nuclear DNA was stained with Hoescht 33342. DNA fragmentation was detected by TUNEL using an in situ cell death detection kit with fluorescein. Statistical analyses were by ANOVA with Tukey's post-test.

The target in the next series is T1, BNIP3 (Homo sapiens, UniProt Q12983).
T1 construct: a pcDNA3-BNIP3 plasmid encoding the full length of BNIP3; expressed in transfected cells
Briefly: BNIP3 induced cell death by exclusion of propidium iodide, co-transfection of BNIP3 DTM plasmid (FIG. 13). It counts as cell-based. As to conditions: 1.0 to 1.0 μg plasmid ratio BNIP3 DTM to BNIP3. As for the experimental part: Increasing concentrations of BNIP3 DTM plasmid (0.25 to 1.0 μg) were added to a constant amount of BNIP3 (1.0 μg). Cell death was determined by exclusion of propidium iodide. […] The BNIP3 DTM mutant contains amino acids 1-163, which is a deletion of the C-terminus of the protein that contains the transmembrane domain.

The next series relates to 293T cells. Briefly: cytochrome c release by indirect immunofluorescence, 293T. It counts as cell-based. The protocol: (§1) Mitochondria were isolated from CaP04-transfected 293T cells using 70 strokes (tight pestle) in a 1-ml Dounce homogenizer (Wheaton) in […] of CFS buffer as previously described (Thornberry, N. A., et al., 1998). Mitochondria were resuspended in H buffer (Thornberry, N. A., et al., 1998). Aliquots of […] of protein were analyzed on Laemmli SDS-15% PAGE gels and immunoblotted with anticytochrome c monoclonal antibody. Equal loading was ensured by probing the same blot with monoclonal antiactin. Results were visualized with enhanced chemiluminescence. Cytochrome c release was also determined via indirect immunofluorescence of transfected MCF-7 and 293T cells. Briefly, cells grown on coverslips were costained with Cy3-conjugated mouse anti-cytochrome c monoclonal antibody and an appropriate tag (HA for BNIP3 and FLAG for tBID), which was visualized with FITC-conjugated goat anti-rabbit IgG. Cells were also stained with Hoechst dye to determine apoptotic nuclear morphology. No fewer than 200 cells were scored for each sample. Fluorescence was visualized and captured using a Zeiss axiophot microscope equipped with a cooled charge-coupled device camera.

In the next series the test system is ventricular myocytes. Briefly: cell viability of ventricular myocytes, calcein acetoxymethyl ester / ethidium homodimer-1. The series is classed as cell-based. As to conditions: cells expressing BNIP3ΔTM. As for the experimental part:
Ventricular myocytes were isolated from 1- to 2-day-old Sprague-Dawley rats (University of Manitoba, Winnipeg, Canada) and submitted to primary culture as reported (Kirshenbaum and Schneider, 1995). Myocytes were subjected to hypoxia for 24 hours in an air-tight chamber continually gassed with 95% N2-5% CO2, as previously reported (Moissac et al., 2000; Long et al., 1997; Tanaka et al., 1994). Adult rat hearts (n=3) were excised from adult rats (250 to 300 g) and subjected to global hypoxia for 1 hour on a modified Langendorff perfusion system with buffer continually gassed with 95% N2-5% CO2, as previously reported (Kirshenbaum, 1993). Heart failure was induced in rats by surgical ligation of the left anterior descending coronary artery, as previously reported (Dixon et al., 1992). Non-failing sham control hearts and those with heart failure were excised from animals 8 weeks after myocardial infarction. Hearts (n=3) were dissected to remove the infarcted scar tissue, and the left ventricular free wall was homogenized and analyzed by Western blot for BNIP3 expression. Animals were handled according to guidelines established by the University of Manitoba and Canadian Council on Animal Care.
The cDNAs for BNIP3 full-length (BNIP3) and carboxyl terminal transmembrane domain deletion mutant (BNIP3ΔTM) have been described previously (Vande et al., 2000). Recombinant adenoviruses encoding the full-length BNIP3 or transmembrane deletion mutant are designated AdBNIP3 or AdBNIP3ΔTM, respectively, and generated as reported previously (Kirshenbaum et al., 1993).
Cell viability was determined using the vital dyes 2 μmol/L calcein acetoxymethyl ester (green) to determine the number of living cells and 2 μmol/L ethidium homodimer-1 (red) (Molecular Probes) to identify the number of dead cells (Kirshenbaum and Schneider, 1995). The number of green cells versus red cells was used to determine changes in cell viability (Moissac et al., 2000). Cells were analyzed from at least n=3 independent myocyte isolations counting ≧200 cells for each condition tested. Data are expressed as mean±SE percent reduction from control.

The test system of a further series is caspase 3-like proteases. Briefly: caspase activation, colorigenic cleavage of Ac-DEVD-pNA by lysates of transfected 293T cells. It counts as biochemical. Conditions: 293T lysates harvested 1 to 36 hours posttransfection, versus untransfected controls. The protocol:
Lysates were collected from 293T cells, transiently transfected via the CaP04 method (Ray, R., et al., 1999), at the indicated times. Aliquots of these lysates were run under Laemmli sodium dodecyl sulfate-polyacrylamide gel electrophoresis (SDS-PAGE) conditions and immunoblotted with mouse monoclonal anti-PARP. Results were visualized with an enhanced chemiluminescence system (Amersham Pharmacia Biotech, Amersham, U. K.). Transfected 293T cells were also assayed for caspase cleavage via colorigenic cleavage of the peptide Ac-DEVD-pNA (Biomol, Plymouth Meeting, Pa.), according to the conditions outlined by Quignon et al. (Scaffidi, C., et al., 1998), using 100 mM peptide. Where appropriate, samples were preincubated with 500 nM Ac-DEVD-fmk for 30 minutes at room temperature. Data were acquired on a Multiskan MCC/340 (Titertek) plate reader at 405 nm.

For another series, the target named is T2, endogenous BNIP3 (Rattus norvegicus, UniProt A0ACM8Q210).
T2 construct: endogenous in cells; host or cells: neonatal rat ventricular myocytes, with or without adenovirus AdBNIP3ΔTM
Nature of the series: alkali extraction of mitochondria of hypoxic ventricular myocytes, BNIP3 western blot. It counts as cell-based. From the text:
For detection of BNIP3 protein, total cardiac cell lysate was subjected to Western blot analysis using a murine antibody directed toward BNIP3 (Vande et al., 2000). To isolate mitochondria from ventricular myocytes, cells were washed in HIM buffer (200 mmol/L mannitol, 70 mmol/L sucrose, 10 mmol/L HEPES-KOH, 1 mmol/L EGTA, pH 7.5). The crude cell pellet was disrupted and resuspended in HIM buffer containing 2.0% wt/vol bovine serum albumin. The homogenate was ultracentrifuged to obtain the mitochondrial fraction and resuspended in 200 mmol/L sucrose, 10 mmol/L HEPES-KOH, 1 mmol/L ATP, 5 mmol/L sodium succinate, 0.08 mmol/L ADP, and 2 mmol/L K2HPO4. To assess whether BNIP3 integrates into mitochondrial membranes during hypoxia, mitochondria were subjected to alkali extraction using 0.01 mol/L Na2CO3 (pH 11.5); this will dissociate and solubilize proteins that are not membrane integrated (Vande et al, 2000; Goping et al, 1998). Antibodies directed toward the following Bcl-2 family members were obtained from respective suppliers: Bad (Transduction Laboratories Inc), Bax (Santa Cruz Inc), and Bak and Bcl-2 (Pharmingen). Bound proteins were visualized using enhanced chemiluminescence (ECL) reagents (Amersham Pharmacia Inc).
In general terms: In western blotting, separated proteins are transferred to a membrane and probed.

A further series has as its system MCF-7 cells. Nature of the series: cytochrome c release by indirect immunofluorescence, MCF-7. The series is classed as cell-based. As for the experimental part:
as §1

The subject of another series is PT pore. Briefly: mitochondrial Dcm (DiOC6), ROS production (HE) and PI staining by flow cytometry in BNIP3-transfected 293T cells. The series is classed as cell-based. Conditions: 293T cells. The protocol: Changes in mitochondrial function were determined by incubating 10 6 293T cells, transiently transfected via the CaP04 method, with either 1 mM JC-1, 40 nM DiOC6, or 2 mM dihydroethidium (HE) (all from Molecular Probes, Inc.) for 30 minutes at 37° C. in Hanks' balanced salt solution (Gibco-BRL). Cells were scored using a FACScalibur flow cytometer (Becton-Dickinson, San Jose, Calif.), and data were analyzed on Celiquest software, version 3.1 (Becton-Dickinson). Controls were performed in the presence or absence of […] mClCCP (Sigma) or an excess of 30% H2 02. For inhibition experiments, cyclosporin A (Sigma) or bongkrekic acid (a gift from J. A. Duine, Delft University, Delft, The Netherlands) was added 2 hours prior to transfection. All cells were harvested 8 hours after transfection and stained with 40 nM DiOC6, 2 mM HE, or 1 mg of propidium iodide (PI) (Sigma) per ml. In all cases, samples were gated to exclude cellular debris.

T1 sequence (Q12983 whole entry): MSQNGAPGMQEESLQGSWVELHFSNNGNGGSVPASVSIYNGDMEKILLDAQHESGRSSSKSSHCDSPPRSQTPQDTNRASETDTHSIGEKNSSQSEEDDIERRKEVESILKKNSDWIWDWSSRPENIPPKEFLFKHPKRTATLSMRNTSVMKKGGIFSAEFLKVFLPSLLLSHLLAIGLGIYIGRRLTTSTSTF
T2 sequence (A0ACM8Q210 1-187): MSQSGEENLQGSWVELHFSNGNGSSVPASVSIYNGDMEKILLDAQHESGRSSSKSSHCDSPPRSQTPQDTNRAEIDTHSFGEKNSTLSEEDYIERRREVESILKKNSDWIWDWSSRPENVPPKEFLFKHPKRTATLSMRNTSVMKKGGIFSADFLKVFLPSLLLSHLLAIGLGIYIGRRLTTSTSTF

For the substance “BNIP3ΔTM: carboxyl terminal transmembrane deletion mutant of BNIP3, deletion of amino acids 164 to 194 (amino acids 1-163)”, the “neurons surviving glutamate toxicity” value in series [1] (glutamate 100 μM at day 9 in culture, 5 days after transfection) is given as 68%. Also, the “BNIP3-positive neurons showing DNA condensation / DNA damage” value is recorded as 17% in series [1] (listed as BNIP^3-163) and 24% in series [1] (listed as pcDNA3-BNIP3^3-163). Further, the “cell death induced by BNIP3 (propidium iodide exclusion)” value with BNIP3 was “background levels”. Besides, the “cytochrome c release (in words)” value was “only very low levels” with 293T cells and “no significant cytochrome c release” in the series with MCF-7 cells. For the same substance, the “toxicity to myocytes (viability versus control cells)” value in the series with ventricular myocytes is on record as “not toxic”. Besides, the “hypoxia-induced cell death of ventricular myocytes” value in the series on ventricular myocytes (hypoxia 24 hours) is “markedly blunted”. Further, the “increase in Ac-DEVD-pNA substrate cleavage after transfection” value with caspase 3-like proteases is “only marginal increases”. Besides, the “hypoxia-induced mitochondrial integration of the endogenous BNIP3 protein” value with endogenous BNIP3 was “suppressed”. Further, in the series with PT pore, the “DiOC6 / HE staining compared to untreated controls” value is “not affected”.
